Experimental data reported in the Deep4Chem optical property database.
Values belong to the compound of their own block, whether it stands above or below them.

Experiment: solvent given as SMILES

Structure (SMILES): CCOc1cc2c(cc1/C=C/C(=C(C#N)C#N)c1ccccc1)c1ccccc1n2CC
emission maximum (in C1CCOC1): 541 nm | emission maximum (in CC#N): 569 nm | emission maximum (in CCO): 575 nm | emission maximum (in CCOC(C)=O): 537 nm | emission maximum (in CN(C)C=O): 573 nm | emission maximum (in CS(C)=O): 575 nm | emission maximum (in Cc1ccccc1): 522 nm | emission maximum (in ClC(Cl)Cl): 550 nm | emission maximum (in ClCCl): 558 nm

Structure (SMILES): C[P+]1(c2ccccc2)c2ccccc2-c2sc3ccccc3c21 (stereo not given)
emission maximum (in CC#N): 442 nm | emission maximum (in CCO): 442 nm | emission maximum (in ClCCl): 445 nm

Structure (SMILES): CC1(C)c2ccccc2N(c2ccc3c(c2)S(=O)(=O)c2cc(N4c5ccccc5C(C)(C)c5ccccc54)ccc2C3(C)C)c2ccccc21
emission maximum (in Cc1ccccc1): 466.12 nm | emission maximum (in ClCCl): 506 nm

Structure (SMILES): CCCCCCc1cc2c(s1)-c1sc(CCCCCC)cc1P(c1ccccc1)(c1ccccc1)=[O+][B-]2(c1c(C)cc(C)cc1C)c1c(C)cc(C)cc1C
emission maximum (in C1CCOC1): 536 nm

Structure (SMILES): B1C=Cc2ccc3ccccc3c2N1
emission maximum (in C1CCCCC1): 371 nm

Structure (SMILES): CC(C)(C)c1ccc2c(c1)c1cc(C(C)(C)C)ccc1n2-c1ccc(S(=O)(=O)c2ccc(-n3c4ccc(C(C)(C)C)cc4c4cc(C(C)(C)C)ccc43)cc2)cc1
emission maximum (in Cc1ccccc1): 404 nm | emission maximum (in O=P(c1ccccc1)(c1ccccc1)c1ccccc1Oc1ccccc1P(=O)(c1ccccc1)c1ccccc1): 423 nm

Structure (SMILES): CCCCCCc1ccc(-n2c3[n+](c4c5ccccc5c5ccccc5c42)[B-](C)(C)c2ccc4ccccc4c2-3)cc1
emission maximum (in C1CCOC1): 444 nm | emission maximum (in CC#N): 443 nm | emission maximum (in Cc1ccccc1): 444 nm | emission maximum (in ClCCl): 435 nm

Structure (SMILES): CCCCCCCCCCCCN1C(=O)c2c(c3ccc4cc(-c5ccc(-c6ccccc6)cc5)c(OC)cc4c3c3c2ccc2cc(-c4ccc(-c5ccccc5)cc4)c(OC)cc23)C1=O
emission maximum (in ClCCl): 527 nm

Structure (SMILES): N#Cc1nn(-c2ccccc2)nc1N1CCCC1
emission maximum (in CC#N): 423 nm

Structure (SMILES): O=S1(=O)C2=C(c3ccccc31)C1(C3=C(c4ccccc41)S(=O)(=O)c1ccccc13)c1ccccc12
emission maximum (in ClCCl): 444 nm

Structure (SMILES): COc1cc2c3c4c(c5ccc(C(C)(C)C)cc5c5c(OC)c(OC)c(OC)c(c2c(OC)c1OC)c45)=[N+]1C3=Nc2c3c4cc(OC)c(OC)c(OC)c4c4c(OC)c(OC)c(OC)c5c6cc(C(C)(C)C)ccc6c(c3c54)n2[B-]1(F)F
emission maximum (in Cc1ccccc1): 873 nm

Structure (SMILES): CC(C)(C)c1ccc2c(c1)c1cc(C(C)(C)C)ccc1n2-c1cc(-n2c3ccc(C(C)(C)C)cc3c3cc(C(C)(C)C)ccc32)c(-n2c3ccc(C(C)(C)C)cc3c3cc(C(C)(C)C)ccc32)c(C#N)c1-n1c2ccc(C(C)(C)C)cc2c2cc(C(C)(C)C)ccc21
emission maximum (in CCCCCC): 449.25 nm | emission maximum (in CCO): 484.15 nm | emission maximum (in Cc1ccccc1): 456 nm | emission maximum (in ClCCl): 472.48 nm

Structure (SMILES): CC(C)(C)c1ccc(-n2c(-c3ccc(-c4ccc(N(c5ccccc5)c5ccccc5)cc4)cc3)nc3c4ccccc4c4ccccc4c32)cc1
emission maximum (in ClCCl): 442 nm

Structure (SMILES): CC(C)(C)C1CCC(=CS/C=C/c2ccc(/C=C/SC=C3CCC(C(C)(C)C)CC3)cc2)CC1 (stereo not given)
emission maximum (in ClCCl): 422 nm

Structure (SMILES): O=C1/C(=C\c2ccc(N(c3ccccc3)c3ccccc3)cc2)S(=O)(=O)c2ccccc21
emission maximum (in C1CCOC1): 630 nm | emission maximum (in C1COCCO1): 600 nm | emission maximum (in CC#N): 518 nm | emission maximum (in CC(C)=O): 540 nm | emission maximum (in CCOC(C)=O): 617 nm | emission maximum (in CN(C)C=O): 520 nm | emission maximum (in CO): 597 nm | emission maximum (in CS(C)=O): 553 nm | emission maximum (in Cc1ccccc1): 587 nm | emission maximum (in ClC(Cl)Cl): 626 nm | emission maximum (in ClCCl): 631 nm

Structure (SMILES): N#Cc1cc(N2c3ccccc3Sc3ccccc32)cc(N2c3ccccc3Sc3ccccc32)c1
emission maximum (in Cc1ccccc1): 536 nm

Structure (SMILES): CC(C)[Si](C#Cc1c2ccccc2c(C#C[Si](C(C)C)(C(C)C)C(C)C)c2nc3c(nc12)Cc1ccccc1-3)(C(C)C)C(C)C
emission maximum (in CCCCCC): 494 nm

Structure (SMILES): FC(F)(F)C(F)(F)C(F)(F)C1=NC2=C(Br)C=C3c4cc(Br)c5nc(C(F)(F)C(F)(F)C(F)(F)F)nc6c(Br)cc(c4c56)=C4C=C(Br)C(=N1)C2C34 (stereo not given)
emission maximum (in C1CCOC1): 486 nm

Structure (SMILES): O=Cc1c(O)c(-c2nc3ccccc3s2)cc2ccccc12
emission maximum (in C1CCOC1): 497 nm | emission maximum (in CC#N): 505 nm | emission maximum (in CC(C)=O): 507 nm | emission maximum (in CCO): 503 nm | emission maximum (in CCOC(C)=O): 501 nm | emission maximum (in CN(C)C=O): 538 nm | emission maximum (in CO): 525 nm | emission maximum (in Cc1ccccc1): 509 nm | emission maximum (in ClC(Cl)Cl): 505 nm | emission maximum (in ClCCl): 505 nm

Structure (SMILES): O=C(c1ccncc1)c1ccc(-n2c3ccccc3c3ccccc32)cc1
emission maximum (in Cc1ccccc1): 440 nm | emission maximum (in c1cc(-c2cccc(-n3c4ccccc4c4ccccc43)c2)cc(-n2c3ccccc3c3ccccc32)c1): 457.34 nm

Structure (SMILES): COc1cc2c3c(c4cc(OC)c(OC)c(OC)c4c2c(OC)c1OC)=[N+]1C(=C(c2c(C)cc(C)cc2C)c2cc4c5cc(OC)c(OC)c(OC)c5c5c(OC)c(OC)c(OC)cc5c4n2[B-]1(F)F)C=3
emission maximum (in C1CCCCC1): 749 nm | emission maximum (in C1CCOC1): 763 nm | emission maximum (in CC#N): 755 nm | emission maximum (in Cc1ccccc1): 767 nm | emission maximum (in ClCCl): 771 nm

Structure (SMILES): CN(C)c1ccc(-c2cc[n+](C)cc2)s1
emission maximum (in CCO): 507 nm

Structure (SMILES): COc1ccc(-c2nc(C)cc(-c3ccc(-n4c5ccccc5c5ccccc54)cc3)n2)cc1
emission maximum (in C1CCOC1): 418 nm | emission maximum (in CN(C)C=O): 453 nm | emission maximum (in Cc1ccccc1): 390 nm | emission maximum (in ClC(Cl)Cl): 421 nm

Structure (SMILES): C[n+]1ccc(-c2cc[n+](C)cc2)cc1
emission maximum (in CC#N): 353 nm

Structure (SMILES): CCCCCCCCN1c2ccccc2Sc2cc(/C=C/c3ccc(N(c4ccc(/C=C/c5ccc6c(c5)Sc5ccccc5N6CCCCCCCC)cc4)c4ccc(/C=C/c5ccc(/C=C/c6ccc(N(c7ccc(/C=C/c8ccc(N(c9ccccc9)c9ccccc9)cc8)cc7)c7ccc(/C=C/c8ccc(N(c9ccccc9)c9ccccc9)cc8)cc7)cc6)c6nsnc56)cc4)cc3)ccc21
emission maximum (in C1CCOC1): 653 nm | emission maximum (in CCOC(C)=O): 646 nm | emission maximum (in CN(C)C=O): 749 nm | emission maximum (in Cc1ccccc1): 620 nm | emission maximum (in ClC(Cl)Cl): 668 nm | emission maximum (in ClCCl): 708 nm

Structure (SMILES): c1cc2c3c(c1)-c1cccc4cccc(c14)B3c1cccc3cccc-2c13
emission maximum (in Cc1ccccc1): 491 nm

Structure (SMILES): CCC1(CC)c2ccccc2-c2c1c1c(c3c2C(CC)(CC)c2cc(/C=C/c4cccs4)ccc2-3)C(CC)(CC)c2ccccc2-1
emission maximum (in C1CCOC1): 395 nm

Structure (SMILES): Cc1cc(C2=Cc3cccc[n+]3[B-](F)(F)O2)ccc1N(C)C
emission maximum (in ClC(Cl)Cl): 491 nm

Structure (SMILES): CCCCCCCCCC[n+]1cc2ccc3c[n+](CCCCCCCCCC)cc4ccc(c1)c2c34
emission maximum (in CC#N): 424 nm

Structure (SMILES): CSc1ccc(C#Cc2ccc(C#Cc3ccc(C#Cc4ccccc4C#N)cc3C#N)cc2C#N)cc1
emission maximum (in ClC(Cl)Cl): 455 nm

Structure (SMILES): CC(C)(C)c1ccc2c(c1)B1c3cc(C(C)(C)C)ccc3Oc3cc(N4c5ccccc5C(C)(C)c5ccccc54)cc(c31)O2
emission maximum (in Cc1ccccc1): 458 nm

Structure (SMILES): CCN(CC)c1ccc(/C=C/c2ccc(-c3ccc(/C=C/c4ccc(N(CC)CC)cc4)s3)s2)cc1
emission maximum (in C1CCOC1): 544 nm | emission maximum (in CC#N): 577 nm | emission maximum (in CC(C)=O): 570 nm | emission maximum (in CN(C)C=O): 586 nm | emission maximum (in Cc1ccccc1): 530 nm

Results, then the compound that gave them:

emission maximum (in ClCCl): 504 nm
Structure (SMILES): COC(=O)c1[nH]c(-c2ccc(OC)cc2)c2nnc3ccc(OC)cc3c12

emission maximum (in CC#N): 436 nm
Structure (SMILES): Cc1cc2nc3[nH]c(=O)n(C)c(=O)c3nc2cc1C

emission maximum (in CC#N): 380 nm
Structure (SMILES): COc1cc(C#Cc2ccccc2)c(C#Cc2ccccc2)cc1OC

emission maximum (in ClCCl): 476 nm
Structure (SMILES): CC(C)(C)NC(=O)c1ccc(C(=O)NC(C)(C)C)c2c1c1c3ccccc3c3ccccc3c1c1c3ccccc3c3ccccc3c21

emission maximum (in ClC(Cl)Cl): 429 nm
Structure (SMILES): N#Cc1cc2ccc3cc(C#N)c4ccccc4c3c2c2ccccc12

emission maximum (in ClCCl): 491 nm
Structure (SMILES): COC(=O)C1=C(C(=O)OC)C2(c3ccccc3-c3c(Br)cc(Br)cc32)C2(/C=C/c3ccccc3)c3cc(OC)c(OC)cc3CCN12 (stereo not given)

emission maximum (in C1CCOC1): 510 nm
Structure (SMILES): C(=C\c1cc2ccccc2c2ccccc12)/c1c2ccccc2cc2ccccc12

emission maximum (in CC#N): 478 nm | emission maximum (in ClCCl): 473 nm
Structure (SMILES): COC(=O)c1cc(=O)n(C)c2cc(-c3ccc4c(c3)OCCO4)sc12

emission maximum (in ClCCl): 405 nm
Structure (SMILES): COc1cc2c(cc1OC)C1=C[C@H](c3ccc(C)cc3)C3(C(C#N)=C(C#N)N1CC2)c1cc(Br)ccc1-c1ccc(Br)cc13

emission maximum (in O): 554 nm
Structure (SMILES): CC(C)c1cc(N(C)C)c(C#N)c2c1-c1cccc3cccc-2c13

emission maximum (in ClCCl): 474 nm
Structure (SMILES): CCCCOc1c(OC)cc2cc(OC)c(OCCCC)c3c4c(OCCCC)c(OC)cc5cc(OC)c(OCCCC)c(c1c23)c54

emission maximum (in CS(C)=O): 738 nm
Structure (SMILES): O=C(O)COc1cccc(-c2c3nc(cc4ccc([nH]4)c(-c4cccc(OCC(=O)O)c4)c4nc(cc5ccc2[nH]5)CC4)CC3)c1

emission maximum (in ClCCl): 448 nm
Structure (SMILES): COc1ccc(C2=Cc3cc4ccccc4cc3P2(=O)c2ccccc2)cc1 (stereo not given)

emission maximum (in ClCCl): 455 nm
Structure (SMILES): Brc1ccc(/C=C/c2cnc3ccccc3n2)cc1

emission maximum (in C1CCOC1): 656 nm
Structure (SMILES): C[Si](C)(C)c1ccc(-c2ccc(-c3ccc(-c4ccc(-c5ccc([Si](C)(C)C)s5)s4)c4nsnc34)s2)s1

emission maximum (in ClCCl): 450 nm
Structure (SMILES): Cc1ccc(C(=O)c2c(C)c3ccc4cccc5c6cccc7ccc2c(c76)c3c45)cc1

emission maximum (in C1COCCO1): 352 nm
Structure (SMILES): COc1ccc(-c2ccc(-c3ccc(F)cc3)cc2)cc1

emission maximum (in O): 634 nm
Structure (SMILES): CN(C)c1ccc2[c](c1)[Ge]([CH3])([CH3])[C]1=CC(=[N+](C)C)C=CC1=C2

emission maximum (in ClCCl): 387 nm
Structure (SMILES): CCCCCCOc1ccc2c(c1)-c1cc3c(cc1[Si]2(C)C)-c1ccccc1[Si]3(C)C

emission maximum (in ClC(Cl)Cl): 422 nm
Structure (SMILES): COc1cc(OC)c2cc(-c3ccccc3CC#N)c(=O)oc2c1

emission maximum (in C1COCCO1): 488 nm | emission maximum (in CC#N): 513 nm | emission maximum (in CC(C)O): 514 nm | emission maximum (in CCO): 520 nm | emission maximum (in CCOC(C)=O): 494 nm | emission maximum (in CN(C)C=O): 524 nm | emission maximum (in CO): 527 nm | emission maximum (in CS(C)=O): 534 nm | emission maximum (in OCC(O)CO): 522 nm | emission maximum (in OCCO): 529 nm
Structure (SMILES): N#Cc1cccc2c(N)c(-c3nn([C@H]4C[C@H](O)[C@@H](CO)O4)c4ncnc(N)c34)ccc12

emission maximum (in ClCCl): 445 nm
Structure (SMILES): CCCCn1c(-c2ccc(-c3nnc(-c4ccc5ccccc5c4)o3)cc2)nc(-c2ccccc2)c1-c1ccccc1

emission maximum (in ClC(Cl)Cl): 386 nm
Structure (SMILES): O=C1[C@@H]2[C@H](C(=O)N1c1ccc3cc4ccccc4cc3c1)[C@@H]1C=C[C@H]2C1

emission maximum (in ClCCl): 410 nm
Structure (SMILES): CCOC(=O)c1c(-c2c(Cl)c3ccccc3oc2=O)nn(-c2cccc(C)c2)c1C(=O)OCC
